Compound in this assay: CCN1C(=O)C2=CC(=C(N=C2N(C1=O)C3CC3)N)C(=O)N + Cc1nc(NC(=O)N2CCC[C@H]2C(N)=O)sc1-c1ccnc(C(C)(C)C(F)(F)F)c1 [Alpelisib] (partner 2 µM)
Nature of the assay: relative viability (nuclei count vs DMSO), 5 days (fraction); higher = more cells survive. The gist of the method: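 One day after seeding in 1536-well plates, lung cancer cell lines were dosed by pin tool. Dosing was either single-drug or a fixed anchor-drug dose plus five library-drug doses (not always all listed) in √10 steps. After 5 days, nuclei were stained in one fix-and-stain step and counted on 4× images, and relative viability is the nuclei count of treated wells over that of vehicle wells, given as the median of duplicate plates.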

Take EKVX: the relative viability amounted to 0.975 (first compound 0.253 µM), 0.896 (first compound 0.8 µM), 0.821 (first compound 2.53 µM) and 0.851 (first compound 8 µM).

On to HARA, for which the relative viability (first compound 0.253 µM) was found to be 0.817, the relative viability (first compound 0.8 µM) was found to be 0.787, the relative viability (first compound 2.53 µM) was found to be 0.79 and the relative viability (first compound 8 µM) came to 0.964.

Take EMC-BAC-2: the relative viability came to 0.808 (first compound 0.253 µM), 0.743 (first compound 0.8 µM), 0.725 (first compound 2.53 µM) and 0.796 (first compound 8 µM).

With PC-3 [JPC-3], the relative viability (first compound 0.253 µM) came to 1.06, the relative viability (first compound 0.8 µM) worked out at 1, the relative viability (first compound 2.53 µM) amounted to 0.981 and the relative viability (first compound 8 µM) stood at 1.16.

Take NCI-H520: the relative viability runs as follows: (first compound 0.253 µM) 0.89; (first compound 0.8 µM) 0.765; (first compound 2.53 µM) 0.962; (first compound 8 µM) 0.923.

For NCI-H1755, the relative viability was 0.946 (first compound 0.253 µM), 0.922 (first compound 0.8 µM), 0.946 (first compound 2.53 µM) and 0.913 (first compound 8 µM).

On to NCI-H2087, for which the relative viability came out at 1.09 (first compound 0.253 µM), 1.07 (first compound 0.8 µM), 1.12 (first compound 2.53 µM) and 1.08 (first compound 8 µM).

Regarding NCI-H2023, the relative viability came to 0.634 (first compound 0.253 µM), 0.542 (first compound 0.8 µM), 0.574 (first compound 2.53 µM) and 0.584 (first compound 8 µM).

For CAL-12T, the relative viability reads like this: (first compound 0.253 µM) 1.07; (first compound 0.8 µM) 1.07; (first compound 2.53 µM) 0.964; (first compound 8 µM) 1.21.

Consider NCI-H2085, for which the relative viability reads like this: (first compound 0.253 µM) 0.96; (first compound 0.8 µM) 0.945; (first compound 2.53 µM) 0.924; (first compound 8 µM) 1.04.

Take NCI-H661: the relative viability (first compound 0.253 µM) was 0.711, the relative viability (first compound 0.8 µM) stood at 0.78, the relative viability (first compound 2.53 µM) was 0.742 and the relative viability (first compound 8 µM) is 0.778.

For the cell line LCLC-97TM1, the relative viability by setting is: (first compound 0.253 µM) 0.258; (first compound 8 µM) 0.275.

As for NCI-H2126, the relative viability is, setting by setting: (first compound 0.253 µM) 0.759; (first compound 0.8 µM) 0.734; (first compound 2.53 µM) 0.785; (first compound 8 µM) 0.734.

For the cell line 201T, the relative viability runs as follows: (first compound 0.253 µM) 1.04; (first compound 0.8 µM) 1.02; (first compound 2.53 µM) 1.04; (first compound 8 µM) 1.04.

For NCI-H1915, the relative viability (first compound 0.253 µM) is 1.1, the relative viability (first compound 0.8 µM) was determined as 0.985, the relative viability (first compound 2.53 µM) was determined as 1.01 and the relative viability (first compound 8 µM) was 1.06.

Take BEN: the relative viability was found to be 1.07 (first compound 0.253 µM), 1.02 (first compound 0.8 µM), 0.929 (first compound 2.53 µM) and 1.01 (first compound 8 µM).

For NCI-H2347, the relative viability turned out to be 0.963 (first compound 0.253 µM), 0.987 (first compound 0.8 µM), 1.02 (first compound 2.53 µM) and 0.89 (first compound 8 µM).

For H3255, the relative viability was determined as 0.653 (first compound 0.253 µM), 0.609 (first compound 0.8 µM), 0.631 (first compound 2.53 µM) and 0.624 (first compound 8 µM).

Regarding NCI-H441, the relative viability reads like this: (first compound 0.253 µM) 0.957; (first compound 0.8 µM) 0.756; (first compound 2.53 µM) 0.637; (first compound 8 µM) 0.598.

Consider NCI-H2228, for which the relative viability by setting is: (first compound 0.253 µM) 0.622; (first compound 0.8 µM) 0.669; (first compound 2.53 µM) 0.709; (first compound 8 µM) 1.16.

Regarding NCI-H1975, the relative viability (first compound 0.253 µM) is 0.635, the relative viability (first compound 0.8 µM) was determined as 0.653, the relative viability (first compound 2.53 µM) is 0.614 and the relative viability (first compound 8 µM) was determined as 0.619.

With NCI-H650, the relative viability is, setting by setting: (first compound 0.253 µM) 1.22; (first compound 0.8 µM) 1.06; (first compound 2.53 µM) 1; (first compound 8 µM) 1.02.

Regarding A-427, the relative viability runs as follows: (first compound 0.253 µM) 1.02; (first compound 0.8 µM) 1.04; (first compound 2.53 µM) 1.04; (first compound 8 µM) 1.09.

On to LXF-289, for which the relative viability came to 1.04 (first compound 0.253 µM), 1.07 (first compound 0.8 µM), 1.03 (first compound 2.53 µM) and 1.05 (first compound 8 µM).

As to NCI-H838, the relative viability (first compound 0.253 µM) is 1.02, the relative viability (first compound 0.8 µM) worked out at 0.985, the relative viability (first compound 2.53 µM) came to 0.934 and the relative viability (first compound 8 µM) worked out at 0.906.

NCI-H1437: the relative viability is 0.956 (first compound 0.253 µM), 1.12 (first compound 0.8 µM), 0.973 (first compound 2.53 µM) and 1.04 (first compound 8 µM).

For the cell line SW 1573, the relative viability by setting is: (first compound 0.253 µM) 0.731; (first compound 0.8 µM) 0.844; (first compound 2.53 µM) 0.644; (first compound 8 µM) 0.849.

With NCI-H1792, the relative viability by setting is: (first compound 0.253 µM) 0.777; (first compound 0.8 µM) 0.687; (first compound 2.53 µM) 0.759; (first compound 8 µM) 0.774.

On to HCC-44, for which the relative viability amounted to 0.829 (first compound 0.253 µM), 0.802 (first compound 0.8 µM), 0.778 (first compound 2.53 µM) and 0.784 (first compound 8 µM).

Take EPLC-272H: the relative viability is, setting by setting: (first compound 0.253 µM) 0.801; (first compound 0.8 µM) 0.868; (first compound 2.53 µM) 0.901; (first compound 8 µM) 0.942.

IA-LM: the relative viability runs as follows: (first compound 0.253 µM) 0.743; (first compound 0.8 µM) 0.816; (first compound 2.53 µM) 0.584; (first compound 8 µM) 0.696.

NCI-H358: the relative viability reads like this: (first compound 0.253 µM) 0.795; (first compound 0.8 µM) 0.91; (first compound 2.53 µM) 0.819; (first compound 8 µM) 0.87.

As to NCI-H647, the relative viability reads like this: (first compound 0.253 µM) 1.11; (first compound 0.8 µM) 1.17; (first compound 2.53 µM) 1.14; (first compound 8 µM) 1.07.

Take NCI-H322M: the relative viability amounted to 0.855 (first compound 0.253 µM), 0.694 (first compound 0.8 µM), 0.765 (first compound 2.53 µM) and 0.656 (first compound 8 µM).

On to NCI-H1563, for which the relative viability worked out at 0.983 (first compound 0.253 µM), 0.982 (first compound 0.8 µM), 0.913 (first compound 2.53 µM) and 0.783 (first compound 8 µM).
